Target: T1, GR (Homo sapiens, UniProt P04150)
T1 sequence (P04150 1-777): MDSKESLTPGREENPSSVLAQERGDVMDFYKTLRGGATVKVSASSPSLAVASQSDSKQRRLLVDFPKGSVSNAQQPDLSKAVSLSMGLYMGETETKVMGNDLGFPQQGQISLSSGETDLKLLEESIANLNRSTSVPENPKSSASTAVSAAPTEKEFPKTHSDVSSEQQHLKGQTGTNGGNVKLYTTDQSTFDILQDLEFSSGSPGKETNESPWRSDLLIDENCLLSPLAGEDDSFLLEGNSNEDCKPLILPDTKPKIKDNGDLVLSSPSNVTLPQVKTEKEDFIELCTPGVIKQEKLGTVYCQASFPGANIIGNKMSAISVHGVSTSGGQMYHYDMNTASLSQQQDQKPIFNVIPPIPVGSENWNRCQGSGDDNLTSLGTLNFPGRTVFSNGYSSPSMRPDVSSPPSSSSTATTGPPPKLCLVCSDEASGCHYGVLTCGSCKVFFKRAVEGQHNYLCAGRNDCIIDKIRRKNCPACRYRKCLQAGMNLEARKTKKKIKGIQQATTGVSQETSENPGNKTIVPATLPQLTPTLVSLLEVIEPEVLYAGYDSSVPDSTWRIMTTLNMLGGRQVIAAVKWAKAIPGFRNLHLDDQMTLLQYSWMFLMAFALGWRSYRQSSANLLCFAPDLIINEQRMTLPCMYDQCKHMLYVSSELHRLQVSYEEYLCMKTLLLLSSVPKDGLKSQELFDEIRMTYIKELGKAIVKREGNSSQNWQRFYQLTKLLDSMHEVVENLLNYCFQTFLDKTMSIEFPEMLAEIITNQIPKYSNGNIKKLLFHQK
Assay: hGR functional assay: CAT activity in CV-1 cells cotransfected with pRShGR alpha (or mutant) and pMTVCAT
Type: cell-based
Parameters: The expression vector linking the RSV LTR to full length hGR cDNA (pRShGR alpha) was designed to obtain high levels of expression; expressed in transfected cells; host or cells: CV-1 monkey kidney cells, cotransfected with pMTVCAT
Conditions: 100 nM steroid, cotransfected CV-1 cells
Source text: The assay system and strategy used to study the expression of functional hGR from the cloned cDNA (See Experimental Section I) is shown in FIG. 11. In these experiments, a glucocorticoid-responsive promoter/enhancer element linked to a reporter gene was introduced into a receptor-negative cell. […] For our assay, we chose to use the MTV LTR fused to the sequence coding for chloramphenicol acetyltransferase (CAT) (EC2.3.1.28). […] Cotransfection of pMTVCAT (or pGMCAT) with a receptor expression plasmid provides functional receptors that allow induction of CAT activity upon treatment of the transfected cells with glucocorticoid hormone. In addition, biochemical studies such as steroid binding activity and Western blot analysis of the expressed receptors can be performed simultaneously.
The cells are then cultured in the presence or absence of hormone. CV-1 cells were used to monitor induction of CAT activity, and COS cells were used to measure steroid-binding capacity and the expression of hGR protein.
CAT assays were performed as indicated in Experimental Procedures (See Section II. F.). C, chloramphenicol; AC, 3-acetylchloramphenicol.
The levels of CAT activity were plotted as percentages of the maximal response observe in a particular experiment.
Each plasmid preparation used for transfection was purified using two consecutive CsCl-EtBr equilibrium gradients. […]

C[C@]12CC[C@@H]3c4ccc(O)cc4CC[C@H]3[C@@H]1CC[C@@H]2O [oestradiol]
induction of CAT activity by steroid: failed to induce CAT activity

Reference: patent publication US6806359B1, “Hormone receptor compositions and methods” (The Salk Institute for Biological Studies, priority 1986, dated 2004)
